According to ChEMBL document CHEMBL4219257, “Novel 8-hydroxyquinoline derivatives targeting β-amyloid aggregation, metal chelation and oxidative stress against Alzheimer's disease” (Bioorg Med Chem, 2018):

What was measured:
[1] = Antioxidant activity assessed as trolox equivalents of AAPH radical scavenging activity at 10 uM preincubated for 15 mins followed by AAPH addition measured every minute for 120 mins by ORAC-FL assay; format: functional
[2] = target: T1, Amyloid-beta precursor protein (Homo sapiens, UniProt P05067); assay: Inhibition of HFIP-pretreated amyloid beta (1 to 42) (unknown origin) self-induced aggregation at 10 uM after 48 hrs by thioflavin T-based fluorometric assay relative to control
T1 sequence (P05067 whole entry): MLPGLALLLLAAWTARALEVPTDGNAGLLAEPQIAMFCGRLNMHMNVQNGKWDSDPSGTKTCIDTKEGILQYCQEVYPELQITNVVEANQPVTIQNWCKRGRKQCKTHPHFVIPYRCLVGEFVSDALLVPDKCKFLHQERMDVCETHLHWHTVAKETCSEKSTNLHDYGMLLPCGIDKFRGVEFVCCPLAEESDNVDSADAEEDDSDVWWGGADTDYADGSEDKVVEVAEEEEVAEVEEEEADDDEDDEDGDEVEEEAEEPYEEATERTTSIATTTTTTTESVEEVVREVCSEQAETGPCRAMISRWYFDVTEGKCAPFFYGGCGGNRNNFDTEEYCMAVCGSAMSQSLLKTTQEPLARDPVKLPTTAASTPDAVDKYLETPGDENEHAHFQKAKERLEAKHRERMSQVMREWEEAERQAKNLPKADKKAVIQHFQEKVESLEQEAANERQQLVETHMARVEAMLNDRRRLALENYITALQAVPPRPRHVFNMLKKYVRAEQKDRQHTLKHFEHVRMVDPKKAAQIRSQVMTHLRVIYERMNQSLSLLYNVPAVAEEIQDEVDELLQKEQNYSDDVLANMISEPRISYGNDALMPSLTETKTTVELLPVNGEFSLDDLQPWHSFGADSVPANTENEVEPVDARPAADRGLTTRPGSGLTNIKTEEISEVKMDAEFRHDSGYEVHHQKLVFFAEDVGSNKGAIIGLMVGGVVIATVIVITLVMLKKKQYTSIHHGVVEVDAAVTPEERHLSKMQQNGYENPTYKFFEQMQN

[3] = target: T1, Amyloid-beta precursor protein; assay: Inhibition of HFIP-pretreated amyloid beta (1 to 42) (unknown origin) self-induced aggregation after 48 hrs by thioflavin T-based fluorometric assay
in vitro = conditions: PAMPA
Description: Permeability of the compound at 100 ug/ml after 10 hrs by PAMPA

[4] = Inhibition of Cu2+ - induced amyloid beta (1 to 42) (unknown origin) aggregation at 50 uM after 24 hrs by thioflavin T-based fluorometric assay relative to control
[5] = Inhibition of Zn2+ - induced amyloid beta (1 to 42) (unknown origin) aggregation at 50 uM after 24 hrs by thioflavin T-based fluorometric assay relative to control

| Compound | inhibition [2] [%] | IC50 [3] [µM] | Papp at 10 h, 100 ug/ml (in vitro) [×10⁻⁶ cm/s] | inhibition [4] [%] | inhibition [5] [%] | Activity [1] [equiv] |
| --- | --- | --- | --- | --- | --- | --- |
| N#Cc1ccc(/C=C/C(=O)N2CCN(Cc3ccc(O)c4ncccc34)CC2)cc1 | 27.8 | 16.8 | – | – | – | 1.77 |
| O=C(O)CCc1ccccc1 | – | – | – | – | – | 0.86 |
| O=C(/C=C/c1ccccc1)N1CCN(Cc2ccc(O)c3ncccc23)CC1 | 55 | 8.86 | – | 69.8 | 66.5 | 1.65 |

The remaining compounds from weak to strong by IC50 [3], led by results:

| inhibition [2] [%] | IC50 [3] [µM] | Papp at 10 h, 100 ug/ml (in vitro) [×10⁻⁶ cm/s] | inhibition [4] [%] | inhibition [5] [%] | Compound | Activity [1] [equiv] |
| --- | --- | --- | --- | --- | --- | --- |
| 25.7 | 22.6 | – | – | – | O=C(/C=C/c1ccc(Cl)cc1)N1CCN(Cc2ccc(O)c3ncccc23)CC1 | 0.69 |
| 34.3 | 18.3 | – | – | – | COc1ccc(CCC(=O)N2CCN(Cc3ccc(O)c4ncccc34)CC2)cc1 | 2.89 |
| 61.9 | 7.35 | 6.83 | – | – | O=C(/C=C/c1ccccc1Cl)N1CCN(Cc2ccc(O)c3ncccc23)CC1 | 0.71 |
